Experimental data as given in ChEMBL document CHEMBL1800051 (J Med Chem, 2010).

Legend:
RAW264.7 [1] = assay: Inhibition of iNOS in mouse RAW264.7 cells assessed as inhibition of LPS-induced nitrite production at 50 uM treated 30 mins before LPS challenge measured after 24 hrs by Griess method; format: functional
[2] = Inhibition of NF-kappaB expressed in human HEK293 cells by luciferase reporter gene based luminometric analysis; format: cell-based
RAW264.7 [3] = assay: Inhibition of iNOS in mouse RAW264.7 cells assessed as inhibition of LPS-induced nitrite production at 100 uM treated 30 mins before LPS challenge measured after 24 hrs by Griess method; format: functional
HCT-116 = assay: Cytotoxicity against human HCT116 cells; format: functional, cell-based
[4] = molecular target: NAD(P)H dehydrogenase [quinone] 1 (Mus musculus) (UniProt Q64669); conditions: Hepa-1c1c7
RAW264.7 [5] = assay: Inhibition of iNOS in mouse RAW264.7 cells assessed as inhibition of LPS-induced nitrite production treated 30 mins before LPS challenge measured after 24 hrs by Griess method; format: functional, cell-based
[6] = molecular target: T1, Ribosyldihydronicotinamide dehydrogenase [quinone] (Homo sapiens, UniProt P16083); assay: Inhibition of human QR2 expressed in Escherichia coli BL21 (DE3) using MTT and NMeH as substrate assessed as formazan formation
T1 sequence (P16083 whole entry): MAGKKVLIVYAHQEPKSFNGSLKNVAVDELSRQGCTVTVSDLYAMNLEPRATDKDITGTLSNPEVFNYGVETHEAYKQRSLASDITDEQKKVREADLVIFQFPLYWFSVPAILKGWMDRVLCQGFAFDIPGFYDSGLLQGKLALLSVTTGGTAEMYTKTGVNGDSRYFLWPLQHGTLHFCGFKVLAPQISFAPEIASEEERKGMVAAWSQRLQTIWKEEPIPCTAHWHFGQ

[7] = Cytotoxicity against mouse Hepa-1c1c7 cells at 50 uM after 48 hrs by crystal violet staining; format: cell-based; conditions: hepa-1c1c7, 48 h
cells = conditions: Mus musculus, Hepa-1c1c7, 48 h

Chain of NAD(P)H dehydrogenase [quinone] 1 (Mus musculus) (Q64669 whole entry): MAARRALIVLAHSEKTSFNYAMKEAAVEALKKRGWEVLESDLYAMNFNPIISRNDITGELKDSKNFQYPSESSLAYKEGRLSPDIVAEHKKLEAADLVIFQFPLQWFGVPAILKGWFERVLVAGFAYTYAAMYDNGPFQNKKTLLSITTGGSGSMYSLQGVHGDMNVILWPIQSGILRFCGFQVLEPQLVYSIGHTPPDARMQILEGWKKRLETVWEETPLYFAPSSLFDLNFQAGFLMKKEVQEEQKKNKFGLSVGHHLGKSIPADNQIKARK

| SMILES | inhibition at 50 µM (RAW264.7 [1]) | IC50 [2] | CD [4] | IC50 (RAW264.7 [5]) | further results |
| --- | --- | --- | --- | --- | --- |
| COc1cc2nc3ccccc3nc2cc1OC | 29.4% | – | – | – | – |
| COc1ccc2nc3ccccc3nc2c1 | 12.5% | – | – | – | – |
| Oc1c(Br)ccc2nc3ccccc3nc12 | – | 73 µM | – | – | inhibition at 100 µM (RAW264.7 [3]): 31.5%; IC50 (HCT-116): 0.1 µM |
| Cc1cc2nc3ccccc3nc2cc1C | 49.1% | 9.15 µM | 23 µM | – | – |
| Oc1ccc(Br)c2nc3ccccc3nc12 | 84.7% | 5.19 µM | – | 31.5 µM | – |
| Brc1cc(Br)c2nc3ccccc3nc2c1 | 16.4% | – | – | – | – |
| COc1cc(Br)cc2nc3cc(C)c(C)cc3nc12 | 8.8% | 6.64 µM | – | – | – |
| COc1ccc(Br)c2nc3cc(C)c(C)cc3nc12 | 51.9% | 17 µM | 1.83 µM | 48.9 µM | – |
| CS/C(S)=N/CCCC[S+](C)[O-] (centres undefined) | – | – | 0.26 µM | – | – |
| COc1c(Br)cc(Br)c2nc3ccccc3nc12 | 24.7% | – | – | – | – |
| Cc1nc2c(Br)cc(Br)c(O)c2nc1C | 81.3% | 1.93 µM | – | 45.6 µM | IC50 [6]: 2.9 µM |
| COc1cc(Br)c(Br)c2nc3ccccc3nc12 | 70.9% | – | – | 33.7 µM | – |
| Cc1nc2cccc(O)c2nc1C | 0% | – | – | – | Activity [7]: Toxic |
| COc1cc(Br)cc2nc3cc(Cl)c(Cl)cc3nc12 | 0% | 2.46 µM | 0.012 µM | – | – |
| COc1cccc2nc3cc(C)c(C)cc3nc12 | 53.8% | – | 11.3 µM | 47 µM | – |
| COc1ccc(OC)c2nc3ccccc3nc12 | 5% | – | – | – | – |
| COc1c(Br)ccc2nc3ccccc3nc12 | 44.7% | – | 29.4 µM | – | – |

| SMILES | inhibition at 50 µM (RAW264.7 [1]) | IC50 [2] | CD [4] | IC50 (RAW264.7 [5]) | further results |
| --- | --- | --- | --- | --- | --- |
| Oc1cc(Br)cc2nc3ccccc3nc12 | 86.5% | 5.42 µM | – | 28.4 µM | – |
| C[S+]([O-])CCCCN=C=S (centres undefined) | – | – | 0.23 µM | – | – |
| COc1cccc2nc3ccccc3nc12 | 2.4% | – | – | – | – |
| COc1cccc2nc(C)c(C)nc12 | 0.8% | – | – | – | – |
| O=[N+]([O-])c1cc(Br)c2nc3ccccc3nc2c1 | 79.7% | 13.1 µM | – | 7.2 µM | – |
| Oc1cc(Br)c(Br)c2nc3ccccc3nc12 | 79.2% | 4.74 µM | – | 17.4 µM | – |
| Cc1ccc2nc3ccccc3nc2c1 | 38.7% | – | – | – | – |
| COc1cccc2nc3cc(Cl)c(Cl)cc3nc12 | 14.6% | 16.2 µM | 9.42 µM | – | – |
| COc1cc(Br)c(Br)c2nc3cc(C)c(C)cc3nc12 | 77.7% | 1.39 µM | – | 34.5 µM | – |
| COc1cccc2nc3cc4ccccc4cc3nc12 | – | 2.1 µM | 0.0047 µM | 7.2 µM | IC50 (cells): 9.58 µM |
| c1ccc2cc3nc4ccccc4nc3cc2c1 [BENZO[B]PHENAZINE] | 98.7% | 2.48 µM | 4.39 µM | 5.9 µM | Activity [7]: Toxic |
| Oc1c(Br)cc(Br)c2nc3ccccc3nc12 | 70.9% | – | 27 µM | 4.2 µM | – |
| COc1cc(Br)cc2nc3ccccc3nc12 | 68.6% | – | – | 26.5 µM | – |
| COc1ccc(Br)c2nc3ccccc3nc12 | 47.5% | – | 4.3 µM | – | – |
| Cc1nc2cc3ccccc3cc2nc1C | 3.4% | – | 16.6 µM | – | Activity [7]: Toxic |
| Oc1cccc2nc3cc(Cl)c(Cl)cc3nc12 | 51.2% | – | 1.85 µM | 47.2 µM | – |
| Cc1cc(Br)cc2nc3ccccc3nc12 | 5.5% | – | – | – | – |
